From patent US7041706B2, “Method for treating crohn's disease” (priority 2002, dated 2006)

Tested on: Crohn's Disease (CD)
Experiment: Oral limonene regimen in two patients suffering from Crohn's Disease (case reports, Examples 2 and 3)
Conditions: for anal bleeding under prior medication regimen: Example 3 subject before limonene, combined regimen of six tablets ASACOL (mesalamine) daily and two 50 mg tablets IMURAN (azathioprine) daily
Experimental: As used herein, “treatment” shall mean temporary or permanent alleviation or elimination of CD symptoms and/or intestinal damage.
A preferred adult dose of limonene is about 400 to 1,000 milligrams, more preferably 1,000 mg, administered once daily, typically for a period of 10 to 30 days. Other dosing regimens, such as every other day and twice weekly regimens, may be desired, depending upon the patient. In fact, it will be appreciated by those of ordinary skill in the art that the amount of limonene, dosing schedule, and duration of treatment may vary depending upon the individual's age, weight, and severity of the CD.
Upon diagnosis, the patient underwent a partial small bowel surgical resection wherein about one foot of intestine and appendix were surgically removed.
To alleviate the symptoms of CD, the subject was taking the following prescriptions and over-the-counter medications: 1 Cortisone injection every six months; 1 tablet of 2.5 mg diphenoxylate/0.025 mg atropine every 8 hours as needed; twelve tablets (2.0 mg each) of IMODIUM (loperamide) every day as needed.
Prior to treatment with the limonene regimen, the subject discontinued taking their prescription and OTC medications for CD except for one cortisone injection in April 2001 and about 1 to 2 tablets of IMODIUM (lopcramide) per month. They began taking 1000 mg d-limonene (98%) on March 2001. […] The subject then began taking 400 mg of d-limonene once a week for two weeks, followed by 400-mg d-limonene twice a week for three weeks. The subject was then put on a regimen of 1000 mg d-limonene take once a week for three weeks, increasing to 1000 mg twice a week for three weeks. After that series, the subject began taking 1000 mg d-limonene every other day for three weeks. The subject continued to take 1000 mg d-limonene twice a week for maintenance.
A subject diagnosed with CD in November 1999 after undergoing a colonoscopy.
The subject began treatment with the inventive limonene method in January 2001, taking 1000 mg of d-limonene daily. […] For maintenance therapy, the patient continued to take three 1000 mg capsules of d-limonene per week.

Structure (SMILES)	anal bleeding under prior medication regimen	adverse effect on first dosing (Example 2, subject with CD, 1000 mg d-limonene (98%) oral, regimen discontinued immediately)	anal bleeding (Example 2, subject with CD, during treatment, when taking 1000 mg d-limonene)	abdominal pain or cramping (Example 2 subject, during maintenance, 1000 mg d-limonene twice a week)	normal stools per day (Example 2 subject, during maintenance, 1000 mg d-limonene twice a week, about ten stools/day before treatment)	anal bleeding (Example 3, subject with CD, about seven days after start of 1000 mg d-limonene daily)	stools per day (Example 3, subject with CD, about seven days after start of 1000 mg d-limonene daily, ten stools/day before)
Nc1ccc(O)c(C(=O)O)c1 [ASACOL, mesalamine, reference compound]	bleeding ceased for about six to eight months, and then reoccurred						
Cn1cnc([N+](=O)[O-])c1Sc1ncnc2nc[nH]c12 [IMURAN, azathioprine, reference compound]	bleeding ceased for about six to eight months, and then reoccurred						
C=C(C)[C@H]1CC=C(C)CC1 [d-limonene]		severe acid reflux	stopped almost immediately	no abdominal pain or cramping	1 to 2 times a day	no anal bleeding	1–2 stools per day
